Results as given in US20100317848A1, “PROCESS FOR THE SYNTHESIS OF DERIVATIVES OF 3-AMINO-TETRAHYDROFURAN-3-CARBOXYLIC ACID AND USE THEREOF AS MEDICAMENTS” (BOEHRINGER INGELHEIM INTERNATIONAL GMBH, priority 2006, published 2010).
≈ marks a conversion by molar mass, not a printed value. Entries after “also recorded” stand apart in the source; their conditions may differ.

How the values were obtained:
human factor Xa = biological target: T1, human factor Xa (Homo sapiens, UniProt P00742); test: Inhibition of factor Xa, enzyme-kinetic measurement with chromogenic substrate; format: biochemical; conditions: FXa assay; (S)-form versus (R)-form at the tetrahydrofuran carbon
T1 construct: released from the colourless chromogenic substrate by human factor Xa; purchased Calbiochem
T1 sequence (P00742 235-488 limits assumed): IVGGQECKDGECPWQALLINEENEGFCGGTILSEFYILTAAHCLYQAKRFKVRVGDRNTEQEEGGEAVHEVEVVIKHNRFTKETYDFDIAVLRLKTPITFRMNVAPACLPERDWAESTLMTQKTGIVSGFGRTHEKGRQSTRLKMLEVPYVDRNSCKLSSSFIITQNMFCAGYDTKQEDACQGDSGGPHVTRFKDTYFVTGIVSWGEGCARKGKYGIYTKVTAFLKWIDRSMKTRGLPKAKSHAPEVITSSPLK
T1 sequence (P00742 41-179 partner limits assumed): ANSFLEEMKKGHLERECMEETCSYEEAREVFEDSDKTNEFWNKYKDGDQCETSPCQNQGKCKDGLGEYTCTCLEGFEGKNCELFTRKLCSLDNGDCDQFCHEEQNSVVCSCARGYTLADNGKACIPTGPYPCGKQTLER
Procedure: The compounds listed in the Experimental Section were investigated for their effect on the inhibition of factor Xa as follows:
Enzyme-kinetic measurement with chromogenic substrate. The quantity of p-nitroaniline (pNA) released from the colourless chromogenic substrate by human factor Xa is determined photometrically at 405 nm. It is proportional to the activity of the enzyme used. The inhibition of the enzyme activity by the test substance (in relation to the solvent control) is determined at various concentrations of test substance and from this the IC50 is calculated, as the concentration which inhibits the factor Xa used by 50%.
Tris(hydroxymethyl)-aminomethane buffer (100 mMol) and sodium chloride (150 mMol), pH 8.0 plus 1 mg/ml Human Albumin Fraction V, protease-free Factor Xa (Calbiochem), spec. activity: 217 IU/mg, final concentration: 7 IU/ml for each reaction mixture Substrate S 2765 (Chromogenix), final concentration: 0.3 mM/l (1 KM) for each reaction mixture Test substance: final concentration 100, 30, 10, 3, 1, 0.3, 0.1, 0.03, 0.01, 0.003, 0.001 μMol/l
10 μl of a 23.5-times concentrated starting solution of the test substance or solvent (control), 175 μl of TRIS/HSA buffer and 25 μl of a 65.8 U/L Factor Xa working solution are incubated for 10 minutes at 37° C. After the addition of 25 μl of S 2765 working solution (2.82 mMol/l) the sample is measured in a photometer (SpectraMax 250) at 405 nm for 600 seconds at 37° C.
1. Determining the maximum increase (deltaOD/minutes) over 21 measuring points. 2. Determining the % inhibition based on the solvent control. 3. Plotting a dosage/activity curve (% inhibition vs substance concentration). 4. Determining the IC50 by interpolating the X-value (substance concentration) of the dosage/activity curve at Y=50% inhibition.

[1] = Intrinsic dissolution rate in aqueous media, rotating disc method; format: physicochemical; conditions: for dissolution rate: 37° C., 200 rpm
Procedure: The intrinsic dissolution rate was determined in aqueous media covering a range of pH 1.1-7.4 using the rotating disc method which maintains a constant surface area. 5 mg of drug substance was compressed to form a disc at 356.1 N for 60 s. These discs were mounted to specially designed sample holders which fit into a Sotax dissolution tester. The dissolution media (37° C.) were stirred at 200 rpm. Samples were automatically withdrawn every second minute from the dissolution vessel and assayed via UV spectrophotometry. The intrinsic dissolution rate expressed in μg/cm^2/min was calculated using the slope of the concentration versus time plot and from the linear portion of the slope of the dissolution curve, volume of dissolution medium (35 ml) and area (diameter: 2 mm) of the exposed disk.

[2] = Solubility in different aqueous media; format: physicochemical; conditions: for solubility: aqueous medium

With `C[C@H]1CN(C)CCc2ccc(NC(=O)[C@]3(NC(=O)c4ccc(Cl)s4)CCOC3)cc21` [(3S)-3-[(5-chloro-thiophen-2-yl)-carbonylamino]-N-((5R)-3,5-dimethyl-2,3,4,5-tetrahydro-1H-benzo[d]azepin-7-yl)-tetrahydrofuran-3-carboxylic acid amide] the “IC50 at an approximately x-fold lower plasma concentration compared to the (R)-enantiomer / corresponding (3R)-diastereoisomer” value (human factor Xa) was “approximately 10 fold”.
With `C[C@@H]1CN(C)CCc2ccc(NC(=O)[C@]3(NC(=O)c4ccc(Cl)s4)CCOC3)cc21` [(3S)-3-[(5-chloro-thiophen-2-yl)-carbonylamino]-N-((5S)-3,5-dimethyl-2,3,4,5-tetrahydro-1H-benzo[d]azepin-7-yl)-tetrahydrofuran-3-carboxylic acid amide] the “IC50 at an approximately x-fold lower plasma concentration compared to the (R)-enantiomer / corresponding (3R)-diastereoisomer” value (human factor Xa) was “approximately 7 fold”.
In the case of `CN1CCc2ccc(NC(=O)[C@]3(NC(=O)c4ccc(Br)s4)CCOC3)cc2CC1` [(S)-3-[(5-bromo-thiophen-2-yl)-carbonylamino]-N-(3-methyl-2,3,4,5-tetrahydro-1H-benzo[d]azepin-7-yl)-tetrahydrofuran-3-carboxylic acid amide], the “IC50 at an approximately x-fold lower plasma concentration compared to the (R)-enantiomer / corresponding (3R)-diastereoisomer” value (human factor Xa) is reported as “approximately 9 fold”.
For `CN1CCc2ccc(NC(=O)[C@]3(NC(=O)c4ccc(Cl)s4)CCOC3)cc2CC1` [(S)-3-[(5-chloro-thiophen-2-yl)-carbonylamino]-N-(3-methyl-2,3,4,5-tetrahydro-1H-benzo[d]azepin-7-yl)-tetrahydrofuran-3-carboxylic acid amide], the “IC50 at an approximately x-fold lower plasma concentration compared to the (R)-enantiomer / corresponding (3R)-diastereoisomer” value (human factor Xa) was “approximately 8 fold”, the “dissolution rate in words” value ([1]; pH 7.4) was “acceptable dissolution rates” and the dissolution rate ([1]; pH of aqueous medium 1.1) was 8220 μg/cm^2/min. For the same molecule, the dissolution rate ([1]; pH of aqueous medium 2.3) was 4520 μg/cm^2/min, the dissolution rate ([1]; pH of aqueous medium 3.2) was 4000 μg/cm^2/min and the dissolution rate ([1]; pH of aqueous medium 4.1) was 3110 μg/cm^2/min. It also gave a dissolution rate ([1]; pH of aqueous medium 5.1) of 4015 μg/cm^2/min, a dissolution rate ([1]; pH of aqueous medium 6.0) of 4140 μg/cm^2/min and a dissolution rate ([1]; pH of aqueous medium 7.4) of 240 μg/cm^2/min. For the same molecule, the “dissolution rate in words” value ([1]; up to pH 6.0) was “very fast dissolution rates”, the solubility in words ([2]; acidic media) was “excellent solubility; also recorded: high solubility” and the solubility ([2]; aqueous buffer, medium: 0.01 N NaOH) was 46 µg/mL (≈ 0.106 mM). For the same molecule, the solubility ([2]; aqueous buffer, medium: pH 2.2) was over 10000 µg/mL, the solubility ([2]; aqueous buffer, medium: pH 4.0) was over 10000 µg/mL and the solubility ([2]; aqueous buffer, medium: pH 6.0) was over 10000 µg/mL. It also gave a solubility ([2]; aqueous buffer, medium: pH 7.4) of 1800 µg/mL (≈ 4.15 mM), a solubility ([2]; simulated gastric fluid, medium: 0.1 N HCl) of over 10000 µg/mL and a solubility ([2]; medium: water) of 280 µg/mL (≈ 0.645 mM). The “pH of the saturated solution” value ([2]; medium: 0.01 N NaOH) was 11.8, the “pH of the saturated solution” value ([2]; medium: 0.1 N HCl) was 1.0 and the “pH of the saturated solution” value ([2]; medium: pH 2.2) was 2.4. For the same molecule, the “pH of the saturated solution” value ([2]; medium: pH 4.0) was 4.3, the “pH of the saturated solution” value ([2]; medium: pH 6.0) was 6.3 and the “pH of the saturated solution” value ([2]; medium: pH 7.4) was 7.5. The “pH of the saturated solution” value ([2]; medium: water) was 8.6 and the solubility in words ([2]; neutral and basic media) was “reduced solubility”.
In the case of `Cc1cc(NC(=O)[C@]2(NC(=O)c3ccc(Br)s3)CCOC2)ccc1N1CCOCCC1=O` [(S)-5-bromo-thiophene-2-carboxylic acid-N-{3-[3-methyl-4-(5-oxo-[1,4]oxazepan-4-yl)-phenylcarbamoyl]-tetrahydrofuran-3-yl}-amide], the “IC50 at an approximately x-fold lower plasma concentration compared to the (R)-enantiomer / corresponding (3R)-diastereoisomer” value (human factor Xa) is reported as “approximately 16 fold”.
For `Cc1cc(NC(=O)[C@]2(NC(=O)c3ccc(Cl)s3)CCOC2)ccc1N1CCOCC/C1=N\C#N` [(S)-5-chloro-thiophene-2-carboxylic acid-N-{3-[3-methyl-4-(5-cyanimin-[1.4]oxazepan-4-yl)-phenylcarbamoyl]-tetrahydrofuran-3-yl}-amide], the “IC50 at an approximately x-fold lower plasma concentration compared to the (R)-enantiomer / corresponding (3R)-diastereoisomer” value (human factor Xa) was “approximately 17 fold”.
In the case of `N#C/N=C1\CCOCCN1c1ccc(NC(=O)[C@]2(NC(=O)c3ccc(Cl)s3)CCOC2)cc1` [(S)-5-chloro-thiophene-2-carboxylic acid-N-{3-[4-(5-cyanimin-[1.4]oxazepan-4-yl)-phenylcarbamoyl]-tetrahydrofuran-3-yl}-amide], the “IC50 at an approximately x-fold lower plasma concentration compared to the (R)-enantiomer / corresponding (3R)-diastereoisomer” value (human factor Xa) is reported as “approximately 15 fold”.
